Earlier results as cited in patent US11168091B2, “Quantification and preparation of pharmaceutical grade cantharidin” (priority 2015, dated 2021).

Conditions: properly stored in a cool and dry place away from strong light and heat; crude preparation of Table 6

CC12C(=O)OC(=O)C1(C)C1CCC2O1 (stereo not shown) [crude cantharidin, 1,2-Dimethyl-3,6-epoxyperhydrophthalic anhydride]
shelf life: 3 years
